Measurements taken from patent US8039420B2, “Fungicidal composition containing acid amide derivative” (Ishihara Sangyo Kaisha, Ltd., priority 2004, dated 2011).

System: Sphaerotheca fuliginea
Assay: Test on Preventive Effect Against Cucumber Powdery Mildew
Conditions: 200 ppm, spray on cucumber (Sagamihanpaku) 1.5-leaf stage; area of sporulation 6 to 7 days after inoculation
Experimental: In each test, the controlling index was determined on the basis of the following standards:
Cucumber (cultivar: Sagamihanpaku) was cultivated in a plastic pot having a diameter of 7.5 cm, and when it reached 1.5-leaf stage, 10 ml of a chemical solution having the acid amide derivative of the formula (I) or a salt thereof adjusted to a prescribed concentration, was applied by a spray gun. After the chemical solution dried (the same day as the application or the next day), a suspension of conidia of Sphaerotheca fuliginea was sprayed and inoculated and maintained in a constant temperature chamber at 20° C. From 6 to 7 days after the inoculation, the area of sporulation was investigated, and the controlling index was determined in accordance with the above evaluation standards.

With `Cc1nn(C)c(Cl)c1C(=O)NC(C)(C)C(=O)c1ccccc1` [1-34] the controlling index was 4 (Area of lesions, length of lesions, number of lesions or area of sporulation is less than 10% of non-treated plot).
